How the values were obtained:
[1] = human
[2] = human; remark: listed apart in the source
[3] = Highest frequency of acute liver toxicity observed during clinical trials, expressed as a percentage. [column '% AIGUE' in source]; settings: human
[4] = human, serum, 4383 h
[5] = human; remark: listed apart in the source
[6] = human; remark: listed apart in the source
[7] = human; remark: listed apart in the source
[8] = human, serum
[9] = Highest frequency of moderate liver toxicity observed during clinical trials, expressed as a percentage. [column '% BIOL' in source]; settings: human
[10] = human; remark: listed apart in the source
[11] = human; remark: listed apart in the source
[12] = human; remark: listed apart in the source
[13] = human; remark: listed apart in the source
[14] = human, serum; remark: listed apart in the source
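For Hepatotoxicity (association with vascular disease) in this document: count of indexed literature references reporting vascular liver injury in humans, e.g. peliosis hepatitis, hepatic veno-occlusive disease or Budd-Chiari syndrome.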
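For Hepatotoxicity (benign tumour) in this document: value is a count of indexed literature references citing a benign tumour confirmed by histopathology.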
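For Hepatotoxicity (choleostasis) in this document: human cholestatic liver injury, shown by histopathology or by peak ALT or AST elevation over alkaline phosphatase ratio below 2, value counts indexed literature reports.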
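For Hepatotoxicity (chronic liver disease) in this document: chronic liver injury confirmed by histopathology or persistently raised serum aminotransferase activity beyond 6 months, value given as the count of indexed literature references.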
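For Hepatotoxicity (cirrhosis) in this document: value is a count of indexed literature references reporting cirrhosis confirmed by histopathology.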
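For Hepatotoxicity (cytolytic) in this document: human cytolytic liver injury, shown by histopathology or by a ratio above 5 of peak ALT or AST elevation to alkaline phosphatase elevation, value counts indexed references.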
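For Hepatotoxicity (granulomatous hepatitis) in this document: value is a count of indexed literature references reporting granulomatous liver disease confirmed by histopathology.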
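For Hepatotoxicity (malignant tumour) in this document: malignant tumour confirmed by histopathology, value gives the count of indexed literature references reporting it.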
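For Hepatotoxicity (severe hepatitis) in this document: human clinical data: severe hepatitis, meaning potentially life-threatening liver failure or clinically observed cases, the value counts how many indexed literature references report it.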
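For Hepatotoxicity (steatosis) in this document: steatosis confirmed by histopathology, value is the count of indexed references.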

Structure (SMILES)	Hepatotoxicity (benign tumour) [1]	Hepatotoxicity (steatosis) [2]	Hepatotoxicity (acute) [3]	Hepatotoxicity (chronic liver disease) [4]	Hepatotoxicity (granulomatous hepatitis) [5]	Hepatotoxicity (choleostasis) [6]	Hepatotoxicity (cytolytic) [7]	Hepatotoxicity (moderate) [8]	Hepatotoxicity (moderate) [9]	Hepatotoxicity (severe hepatitis) [10]	Hepatotoxicity (malignant tumour) [11]	Hepatotoxicity (cirrhosis) [12]	Hepatotoxicity (association with vascular disease) [13]	Hepatotoxicity (acute) [14]
CO/N=C(\C(=O)N[C@@H]1C(=O)N2C(C(=O)[O-])=C(C[n+]3cccc4c3CCC4)CS[C@H]12)c1csc(N)n1 [CEFPIROME]	0	0	0%	0	0	0	0	62	33.3%	0	0	0	0	0
COCC1=C(C(=O)OC(C)OC(=O)OC(C)C)N2C(=O)[C@@H](NC(=O)/C(=N\OC)c3csc(N)n3)[C@H]2SC1 (stereo not given in full) [CEFPODOXIME PROXETIL]	0	0	0%	0	0	0	0	13	7.1%	0	0	0	0	0
COCC1=C(C(=O)O)N2C(=O)[C@@H](NC(=O)/C(=N\OC)c3csc(N)n3)[C@H]2SC1 [CEFPODOXIME]	0	0	0%	0	0	0	0	29	33.3%	0	0	0	0	0
CC=CC1=C(C(=O)O)N2C(=O)[C@@H](NC(=O)[C@H](N)c3ccc(O)cc3)[C@H]2SC1 [CEFPROZIL]	0	0	0.6%	0	0	1	0	42	25%	0	0	0	0	1
COC1=C(C(=O)O)N2C(=O)[C@@H](NC(=O)[C@H](N)C3=CCC=CC3)[C@H]2SC1 [CEFROXADINE]	0	0	0%	0	0	0	0	1	2%	0	0	0	0	0
NC(=O)c1cc[n+](CC2=C(C(=O)O)N3C(=O)[C@@H](NC(=O)[C@@H](c4ccccc4)S(=O)(=O)[O-])[C@H]3SC2)cc1 [CEFSULODIN]	0	0	0%	0	0	0	0	4	18.2%	0	0	0	0	0
Nc1nc(/C(=C/CC(=O)O)C(=O)N[C@@H]2C(=O)N3C(C(=O)O)=CCS[C@H]23)cs1 [CEFTIBUTEN]	0	0	0%	0	0	0	0	15	14.3%	0	0	0	0	0
CO/N=C(\C(=O)N[C@@H]1C(=O)N2C(C(=O)O)=CCS[C@H]12)c1csc(N)n1 [CEFTIZOXIME]	0	0	1.4%	0	0	1	1	32	35%	0	0	0	0	4
CO/N=C(\C(=O)N[C@@H]1C(=O)N2C(C(=O)O)=C(CSc3cnns3)CS[C@H]12)c1csc(N)n1 [CEFUZONAM]	0	0	0%	0	0	0	0	19	14.3%	0	0	0	0	0
O=C(Cc1cccs1)N[C@@H]1C(=O)N2C(C(=O)[O-])=C(C[n+]3ccccc3)CS[C@H]12 [CEPHALORIDINE]	0	0	0%	0	0	0	0	1	0%	0	0	0	0	0
[H]/N=C(\N/C(=N/[H])NCCCCCCNC(=N)NC(=N)Nc1ccc(Cl)cc1)Nc1ccc(Cl)cc1 [CHLORHEXIDINE]	0	0	0%	0	0	0	0	0	0%	0	0	0	0	1
NS(=O)(=O)c1cc(C2(O)NC(=O)c3ccccc32)ccc1Cl (stereo not given) [CHLORTHALIDONE]	0	0	0%	0	0	0	0	0	0%	0	0	0	0	2
CN1CCC[C@@H]1CCO[C@](C)(c1ccccc1)c1ccc(Cl)cc1 [CLEMASTINE]	0	0	0%	0	0	0	0	1	0.7%	0	0	0	0	0
COc1ccc([C@@H]2Sc3cc(Cl)ccc3N(CCN(C)C)C(=O)[C@@H]2OC(C)=O)cc1 [CLENTIAZEM]	0	0	0%	0	0	0	0	1	3.7%	0	0	0	0	0
CN(C)C(=O)CCCOC(=O)C(C)(C)Oc1ccc(Cl)cc1 [CLOFIBRIDE]	0	0	0%	0	0	0	0	1	0%	0	0	0	0	0

Source: ChEMBL document CHEMBL3137667, “[Drug-induced liver injury; fourteenth updated edition of the bibliographic database of liver injuries and related drugs]” (Gastroenterol Clin Biol, 2004)
